Experimental data from patent publication US8173148B2, “Stabilized polymeric delivery system comprising a water-insoluble polymer and an organic liquid” (priority 2004, dated 2012).

How the values were obtained:
Type in all cases: physicochemical
[1] = Precipitation / formulation studies of GHRP-1/ATRIGEL formulations (Example 9); conditions: bulk GHRP-1 citrate solution, time needed for commercial manufacturing
Procedure: This formulation was identified as AL3922.02. […] Consequently, a fourth formulation (AL3922.04) was developed.
Table 1 summarizes the precipitation studies that were conducted for each formulation. The acronyms are identified as follows: GHRP-1 is a known […] mimicking growth hormone releasing peptide; DL2A is poly (DL) lactide-glycolide (75/25) having a terminal carboxyl group and an average molecular weight of about 13 kDa and an inherent viscosity of about 0.17 dL/g; NMP is N-methylpyrrolidone.

[2] = Effect of differing octreotide complexes on decomposition of PLGH in NMP, GPC (Example 7); conditions: 35 wt % 50/50 PLGH in NMP, over 25 days, FIG. 3
Procedure: Aliquots of a solution of 50/50 polylactide glycolide having an inherent viscosity of 0.57 dL/g and an average molecular weight of 45,000 were prepared so as to provide 35 wt % aliquots of the PLGH in N-methylpyrrolidone (NMP). To individual aliquots was added one of the following octreotide free base (OB)—complexes: OB-citrate; OB mesylate; OB-acetate; OB-Glucuronate. The OB-citrate complex was studied at several ratios: excess OB, 1:3 exchange, 1:1 exchange and citrate to pH 7. The average molecular weight of the PLGH in the solution was periodically determined over a period of 25 days by GPC analysis using pre-calibrated polylactide-glycolide standards for retention times. The following graph presents the results. […] The data determined by this experiment are presented graphically in FIG. 3.

[3] = Degradation of PLGH by octreotide acetate in NMP, average molecular weight by GPC (Example 4); conditions: ambient temperature, 2 hours
Procedure: A solution of 34 wt % of 50/50 carboxyl terminated polylactide glycolide (PLGH at a 1:1 ratio of lactide to glycolide) in N-methylpyrrolidone (NMP) was prepared and divided into several aliquots. To a 950 mg aliquot was added 57.01 mg of octreotide acetate (OA) to provide a solution of 5.66 wt % octreotide acetate in a 34 wt % solution of PLGH in NMP. Upon standing at ambient temperature for 2 hours, the aliquot with OA and a control aliquot containing only PLGH and NMP were analyzed for average molecular weight of the PLGH by GPC analysis. The retention times were correlated against predetermined molecular weight standards of polylactide-glycolide which had been calibrated by GC-mass spectroscopy.

Compound | drug precipitation / remaining in solution (Comments) [1] | degradation of PLGH average molecular weight by octreotide complexes [2] | average molecular weight of the PLGH ([3]; 5.66 wt % octreotide acetate in 34 wt % 50/50 PLGH in NMP, control aliquot 37,628 daltons) | degradation of the PLGH molecular weight ([3]; 34 wt % PLGH in NMP)
GHRP-1: growth hormone releasing peptide; seven amino acid peptide containing one lysine and one tryptophan (ATRIGEL) | tended to precipitate out of the solution over a couple of hours |  |  | 
C[C@@H](O)[C@@H]1NC(=O)[C@H](CCCCN)NC(=O)[C@@H](Cc2c[nH]c3ccccc23)NC(=O)[C@H](Cc2ccccc2)NC(=O)[C@@H](NC(=O)[C@H](N)Cc2ccccc2)CSSC[C@@H](C(=O)N[C@H](CO)[C@@H](C)O)NC1=O (relative stereo) [octreotide acetate, L-cysteinamide, D-phenylalanyl-L-cysteinyl-L-phenylalanyl-D-tryptophyl-L-lysyl-L-threonyl-N-[2-hydroxy-1-(hydroxymethyl)propyl]-, cyclic (2→7)-disulfide; [R—(R*,R*)]] |  | immediate dramatic degradation | 20,173 daltons | significant degradation
